From PubChem BioAssay (NCI)
“And” between values parts separate entries of the source, which are not always exact repeats. Equal values may be shown once.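 All cell lines were grown in 96-well plates and treated with compound for 48 hours. Here, GI50 denotes the concentration required for 50% inhibition of growth. At the TGI there is no net growth.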

Legend:
Experiment in all cases: inhibition of tumour cell growth, NCI panel, 48 h
KM12 colon = test system: KM12 colon
HS 578T breast = test system: HS 578T breast
HOP-92 NSCLC = test system: HOP-92 NSCLC
HCT-116 colon = test system: HCT-116 colon
SK-OV-3 ovarian = test system: SK-OV-3 ovarian
M19-MEL melanoma = test system: M19-MEL melanoma
HCT-15 colon = test system: HCT-15 colon
U251 CNS = test system: U251 CNS
DMS 114 small cell lung = test system: DMS 114 small cell lung
A549 NSCLC = test system: A549 NSCLC

Row | Compound | TGI (KM12 colon) [µM] | TGI (HS 578T breast) [µM] | GI50 (HOP-92 NSCLC) [µM] | TGI (HOP-92 NSCLC) | GI50 (HCT-116 colon) | TGI (HCT-116 colon) | GI50 (SK-OV-3 ovarian) | TGI (SK-OV-3 ovarian) | GI50 (M19-MEL melanoma) | TGI (M19-MEL melanoma) | GI50 (HCT-15 colon) [µM] | TGI (HCT-15 colon) | GI50 (U251 CNS) [µM] | TGI (U251 CNS) | GI50 (DMS 114 small cell lung) | TGI (DMS 114 small cell lung) | GI50 (A549 NSCLC) | TGI (A549 NSCLC)
1 | OCC1OC(n2cnc3c2NC=NC[C@H]3O)CC1O (stereo not given in full) | 500 | > 500 | > 588 | 454 µM and > 588 µM | > 588 µM | 500 µM and > 588 µM | > 588 µM | 474 µM and > 588 µM | > 588 µM | 460 µM and > 588 µM | > 588 | 500 µM and > 588 µM | > 588 | 500 µM and > 588 µM | > 588 µM | 455 µM and > 588 µM | 412 µM and > 588 µM | 461 µM and > 588 µM
2 | CC(C)NC(=O)OCc1c(COC(=O)NC(C)C)c(-c2ccc(Cl)c(Cl)c2)n2c1CCC2 | 73.1 | > 100 | – | 52.2 µM | – | 73 µM | – | > 76.8 µM | – | 61.3 µM | – | 71.3 µM | – | 71.8 µM | – | 57.4 µM | – | 29.6 µM
3 | CSc1nc(C)c(Br)c(=O)n1C1OC(COC(C)=O)C(OC(C)=O)C(OC(C)=O)C1OC(C)=O (stereo not given) | > 100 | > 100 | – | 54.8 µM and 58.1 µM | > 88.4 µM and 35 µM | > 100 µM | > 91.7 µM and 42.3 µM | > 100 µM | > 100 µM and 44.6 µM | > 100 µM | – | > 100 µM | – | > 100 µM and 49.3 µM | > 100 µM and 25.5 µM | > 100 µM and 81 µM | > 100 µM and 28.5 µM | > 100 µM
4 | COc1ccccc1C(N)c1ccccc1 (stereo not given) | > 100 | – | – | > 100 µM | – | > 100 µM | – | > 100 µM | – | > 100 µM | – | > 100 µM | – | > 100 µM | – | > 100 µM | – | > 100 µM
5 | CC(C(=O)O)/C(=C\c1ccc2c(c1)OCO2)C(=O)O (stereo not given) | > 100 | > 100 | – | > 100 µM | – | > 100 µM | – | > 100 µM | – | > 100 µM | – | > 100 µM | – | > 100 µM | – | > 100 µM | – | > 100 µM
6 | COC(=O)C1=C(c2ccc3c(c2)OCO3)OC(c2ccc3c(c2)OCO3)C1 (stereo not given) | > 100 | – | – | > 100 µM | – | > 100 µM | – | > 100 µM | – | > 100 µM | – | > 100 µM | – | > 100 µM | – | > 100 µM | – | > 100 µM
7 | O=C1c2cc([N+](=O)[O-])cc3cc([N+](=O)[O-])cc(c23)C(=O)N1CCCNCCNCCCN1C(=O)c2cc([N+](=O)[O-])cc3cc([N+](=O)[O-])cc(c23)C1=O | 2.51 | – | – | 1.82 µM | – | 0.667 µM | – | 8.48 µM | – | 0.752 µM | – | > 30.6 µM | – | 3.49 µM | – | 1.38 µM | – | 3.6 µM
8 | Brc1ccccc1C=NC12CC3CC(CC(C3)C1)C2 | > 100 | > 100 | – | > 100 µM | – | > 100 µM | – | > 100 µM | – | > 100 µM | – | > 100 µM | – | > 100 µM | – | > 100 µM | – | > 100 µM
9 | CNC(=O)NC(CCCCNC(=O)OCc1ccccc1)C(=O)OCc1ccccc1 (stereo not given) | > 100 | > 100 | – | 45.3 µM | – | > 100 µM | – | > 100 µM | – | 40.7 µM | – | > 100 µM | – | > 97.1 µM | – | 85.4 µM | – | > 100 µM
